Measurements reported in patent US20250277030A1, “ANTI-NAPI2B ANTIBODIES AND METHODS OF USE” (Zymeworks BC Inc., priority 2022, published 2025).

How the values were obtained:
cynomolgus NaPi2b = assay: Flow cytometry binding to HEK293-6e cells transfected with cynomolgus NaPi2b (Example 5); conditions: transfected HEK293-6e cells
Protocol: The binding cross-reactivity of humanized antibody variant v29456 to human, cynomolgus and mouse NaPi2b was assessed by flow cytometry using HEK293-6e transfected cells.
(§1) Briefly, HEK293-6e cells were transfected for ˜24 hours to transiently express human NaPi2b, cynomolgus or mouse NaPi2b, at 1 μg of DNA per 1 million cells. Following transfection, 50,000 cells per well were seeded in V-bottom 96-well plates and incubated with 200 nM of primary antibody for 18-24 hours at 4° C. to prevent internalization. Post-incubation, cells were washed and stained with anti-Human IgG Fc AF647 conjugate (Jackson Immuno Research Labs, West Grove, PA, Cat. No. 109-605-098, Lot. No. 124868) at 4° C. for 1 hour. Following staining and washing, fluorescence was detected by flow cytometry on BD LSRFortessa™ Cell Analyzer (BD Biosciences, Franklin Lake, NJ) with 10,000 minimum events collected per well. The AF647/APC-A GeoMean (fluorescence signal geometric mean, proportional to anti-Human AF647 binding) was calculated for the live singlet cell population for each primary antibody using FlowJo™ v8 software (BD Biosciences, Franklin Lake, NJ). The Bmax and Kd of each primary antibody were calculated using GraphPad Prism Version 9 (GraphPad Software, San Diego, CA)

HCC-78 cells = assay: Internalization by flow cytometry in HCC-78 cells; format: cell-based, human; conditions: antibody 10 nM
Protocol: (§2) Briefly, antibodies were fluorescently labeled by coupling to a Fab fragment AF488 conjugate targeting anti-Human IgG Fe (Jackson Immuno Research Labs, West Grove, PA; Cat. No. 109-547-008) at a 1:1 molar ratio in PBS pH 7.4 (Thermo Fisher Scientific, Waltham, MA; Cat. No. 10010-023), for 24 hours at 4° C. Cells were seeded at 50,000 cells/well in RPMI 1640, ATCC modification (Thermo Fisher Scientific, Waltham, MA) supplemented with 10% fetal bovine serum (Thermo Fisher Scientific, Waltham, MA) in 48-well plates and incubated overnight under standard culturing conditions (37° C./5% CO2) to allow attachment. […] Following incubation, cells were dissociated, washed, and surface AF488 fluorescence was quenched using an anti-AF488 antibody (Life Technologies, Carlsbad, CA; Cat. No. A-11094) at 100 nM for 30 minutes at 4° C. […] (internalized fluorescence) was detected by flow cytometry on a BD LSRFortessa™ Cell Analyzer (BD Biosciences, Franklin Lake, NJ) with 1,000 minimum events collected per well. The AF488/FITC-A GeoMean (fluorescence signal geometric mean, proportional to anti-Human Fab AF488 labelling) was calculated for the live single cell population using FlowJo™ Version 10.8.1 (BD Biosciences, Franklin Lake, NJ) and plotted using GraphPad Prism Version 9 (GraphPad Software, San Diego, CA).

NCI-H441 cells = assay: Internalization by flow cytometry in NCI-H441 cells; format: cell-based, human; conditions: antibody 10 nM
Protocol: as §2

[1] = molecular target: T1, NaPi2b expressed on IGROV-1 cells (Homo sapiens, UniProt O95436); assay: Cellular binding of antibody and ADCs to IGROV-1 cells by flow cytometry (Example 14)
T1 construct: IGROV-1 cells express endogenous NaPi2b at a high level; endogenous in cells; host or cells: IGROV-1
T1 sequence (O95436 1-690): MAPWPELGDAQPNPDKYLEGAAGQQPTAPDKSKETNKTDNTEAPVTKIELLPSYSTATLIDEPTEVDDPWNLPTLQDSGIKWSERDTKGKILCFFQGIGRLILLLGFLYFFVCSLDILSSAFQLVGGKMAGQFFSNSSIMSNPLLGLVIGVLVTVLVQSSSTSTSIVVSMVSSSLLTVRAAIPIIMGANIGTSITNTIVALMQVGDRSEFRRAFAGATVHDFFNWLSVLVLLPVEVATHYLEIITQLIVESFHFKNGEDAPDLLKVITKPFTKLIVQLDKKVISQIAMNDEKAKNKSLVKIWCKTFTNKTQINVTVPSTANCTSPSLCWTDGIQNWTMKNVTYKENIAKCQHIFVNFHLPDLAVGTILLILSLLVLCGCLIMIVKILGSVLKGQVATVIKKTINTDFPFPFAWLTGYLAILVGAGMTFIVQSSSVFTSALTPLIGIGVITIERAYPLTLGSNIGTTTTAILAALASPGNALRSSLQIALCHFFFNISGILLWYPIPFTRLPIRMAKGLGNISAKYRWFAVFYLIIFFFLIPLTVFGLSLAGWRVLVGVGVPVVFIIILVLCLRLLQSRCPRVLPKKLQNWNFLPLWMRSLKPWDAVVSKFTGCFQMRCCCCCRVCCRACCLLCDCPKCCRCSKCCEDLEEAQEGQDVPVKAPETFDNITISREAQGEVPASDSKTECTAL
Protocol: as §1
(§3) The ability of ADCs to bind to cells expressing NaPi2b was assessed. […] Binding to endogenous high NaPi2b-expressing cell lines IGROV-1 and HCC-78 was assessed by flow cytometry according to methods described in Example 5.

[2] = molecular target: T2, NaPi2b expressed on HCC-78 cells (Homo sapiens, UniProt O95436); assay: Cellular binding of antibody and ADCs to HCC-78 cells by flow cytometry (Example 14)
T2 construct: endogenous in cells; host or cells: HCC-78
T2 sequence (O95436 1-690): T1 sequence (O95436 1-690)
Protocol: as §1, §3

Sequence of cynomolgus NaPi2b (as listed by the source): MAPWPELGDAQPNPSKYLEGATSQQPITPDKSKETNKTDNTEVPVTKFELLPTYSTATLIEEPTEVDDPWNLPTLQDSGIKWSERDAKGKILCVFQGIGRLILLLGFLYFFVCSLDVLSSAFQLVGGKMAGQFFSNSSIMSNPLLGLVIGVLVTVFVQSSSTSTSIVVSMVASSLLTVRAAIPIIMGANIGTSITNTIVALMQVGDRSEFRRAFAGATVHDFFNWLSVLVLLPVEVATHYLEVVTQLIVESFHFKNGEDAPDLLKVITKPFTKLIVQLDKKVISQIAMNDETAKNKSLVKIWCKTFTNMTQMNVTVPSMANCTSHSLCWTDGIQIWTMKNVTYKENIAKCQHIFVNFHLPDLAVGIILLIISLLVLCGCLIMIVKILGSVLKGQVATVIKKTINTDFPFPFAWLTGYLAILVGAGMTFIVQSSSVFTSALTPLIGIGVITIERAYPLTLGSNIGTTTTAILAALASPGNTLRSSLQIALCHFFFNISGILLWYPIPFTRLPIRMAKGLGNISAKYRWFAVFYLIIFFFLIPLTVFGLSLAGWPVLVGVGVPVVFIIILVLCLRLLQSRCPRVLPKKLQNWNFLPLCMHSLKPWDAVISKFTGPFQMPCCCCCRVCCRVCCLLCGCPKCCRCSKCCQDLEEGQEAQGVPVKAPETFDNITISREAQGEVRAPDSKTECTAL

In the case of “v22277: anti-RSV antibody palivizumab, negative control; has a heterodimeric Fc [reference compound]”, the “Binding to cynomolgus NaPi2b, in words” value (cynomolgus NaPi2b) was “did not bind”, the “Internalized Fluorescence Fold-Over Palivizumab” value (HCC-78 cells; HCC-78, 5 hrs) was 1.0 fold and the “Internalized Fluorescence Fold-Over Palivizumab” value (HCC-78 cells; HCC-78, 24 hrs) was 1.0 fold. For the same substance, the “Internalized Fluorescence Fold-Over Palivizumab” value (NCI-H441 cells; NCI-H441, 5 hrs) was 1.0 fold, the “Internalized Fluorescence Fold-Over Palivizumab” value (NCI-H441 cells; NCI-H441, 24 hrs) was 1.0 fold and the “Binding to IGROV-1 cells, in words” value [1] was “did not bind”. For the same substance, the “Binding to HCC-78 cells, in words” value [2] was “did not bind”.
